The source of these data is article PMC9116242 (Journal of Enzyme Inhibition and Medicinal Chemistry, 2022).

In one data set the test system is BV-2 cells. Description: Cytotoxicity on BV-2 cells, MTT assay. Type of data set: cell-based. Particulars: 5 and 10 μM. On the technique in general: Tetrazolium assays rely on reduction of a dye to a coloured formazan, in cell work by metabolically active cells.
Data set [1] has as its system NO production in LPS-induced BV-2 cells. Description: NO release in BV-2 cells and LPS-stimulated BV-2 cells, Griess reaction. The format is cell-based. Conditions: 5 and 10 μM. A general note: Griess reagent forms a coloured azo dye with nitrite.
In data set [2] the test system is TNF-α production in LPS-induced BV-2 cells. Nature of the data set: LPS-induced TNF-α production in BV-2 cells, ELISA. The format is cell-based. Conditions: for Level of TNF-α production: BV-2 cells, 1.0 μg/mL LPS; for inhibition at 5 µM: Mus musculus, BV-2, read-out: Inhibitory rate of TNF-α production. On the technique in general: In an ELISA, binding on a coated surface is turned into a signal by an enzyme label.

Another data set concerns PC12 cells. Description: Neuroprotective effect against Aβ1-42-induced PC12 cell injury, MTT assay. The format is cell-based. Conditions: 25 μM Aβ1-42 for 48 h, compound at 5 and 10 μM.
Data set [3] can be described thus: PAMPA-BBB permeation assay. Particulars: Table 3.
The nature of data set [4]: In vivo PET-CT imaging with [11C]5f in mice. Particulars: blocker 1.0 mg/kg 5 min before the radiotracer, compared with baseline.
For a further data set, the target named is T1, huMAO-B (Homo sapiens, UniProt P27338).
T1 sequence (P27338 1-520): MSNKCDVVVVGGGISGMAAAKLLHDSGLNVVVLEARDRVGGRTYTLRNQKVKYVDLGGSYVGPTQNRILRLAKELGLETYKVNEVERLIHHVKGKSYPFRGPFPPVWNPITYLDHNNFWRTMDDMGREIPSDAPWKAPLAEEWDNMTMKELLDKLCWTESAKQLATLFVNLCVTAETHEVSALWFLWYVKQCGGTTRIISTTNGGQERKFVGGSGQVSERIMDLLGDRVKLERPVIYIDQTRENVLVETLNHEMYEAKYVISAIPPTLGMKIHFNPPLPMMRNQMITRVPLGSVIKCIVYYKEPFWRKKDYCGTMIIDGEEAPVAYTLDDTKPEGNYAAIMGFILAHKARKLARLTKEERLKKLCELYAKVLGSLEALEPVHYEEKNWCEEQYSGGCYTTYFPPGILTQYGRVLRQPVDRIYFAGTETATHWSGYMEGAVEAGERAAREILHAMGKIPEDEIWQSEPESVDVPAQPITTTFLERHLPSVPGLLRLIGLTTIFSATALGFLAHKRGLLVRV
Description: Kinetic study against huMAO-B, Lineweaver-Burk plots. Type of data set: biochemical. Particulars: 5a at 0.15, 0.3 and 0.6 μM.

As to `COc1cc(/C=C/C(=O)N2CCc3ccccc3C2)ccc1OC1CCCCC1` [Compound 5h, (E)-3-(4-(cyclohexyloxy)-3-methoxyphenyl)-1-(3,4-dihydroisoquinolin-2(1H)-yl)prop-2-en-1-one], in the data set with BV-2 cells, the “Cytotoxicity on BV-2 cells (cell viability)” value (shortened to “Cytotoxicity on BV-2 cells”) was “non-toxic”. Further, the “Effect on release of NO in BV-2 cells without LPS” value in data set [1] is reported as “did not produce an effect on the release of NO”. For the same molecule, the “Level of TNF-α production” value in data set [2] (compound at 5 μM) was found to be 740 pg/mL; in data set [2] (compound at 10 μM), 435 pg/mL. In addition, the inhibition at 5 µM in data set [2] was determined as 56.5%. The “Cell viability, Aβ1-42-induced PC12 cell injury (in words)” value (from here on “Cell viability … (in words)”) with PC12 cells is recorded as “gradually increased in a dose-dependent manner”. The Pe in data set [3] was 16.7 ×10⁻⁶ cm/s.
On to `CCN(C)C(=O)Oc1cccc([C@H](C)N(C)C)c1` [Rivastigmine, reference compound], for which the “Radio-uptake decrease of [11C]5f in the brain after pre-treatment (blocking)” value in data set [4] was about 35%.
`C#CCOc1ccc(/C=C/C(=O)N2CCC(Cc3ccccc3)CC2)cc1OC` [Compound 5a, (E)-1-(4-benzylpiperidin-1-yl)-3-(3-methoxy-4-(prop-2-yn-1-yloxy)phenyl)prop-2-en-1-one]: the “Type of MAO-B inhibition” value on huMAO-B is recorded as “competitive”. In addition, in the data set with BV-2 cells, the “Cytotoxicity on BV-2 cells” value is on record as “non-toxic”. In addition, the “Effect on release of NO in BV-2 cells without LPS” value in data set [1] is “did not produce an effect on the release of NO”. Also, the “Level of TNF-α production” value in data set [2] (compound at 5 μM) is listed as 820 pg/mL; in data set [2] (compound at 10 μM) it was 520 pg/mL. Further, in data set [2], the inhibition at 5 µM worked out at 51.7%. For the same molecule, the Pe in data set [3] is 14.7 ×10⁻⁶ cm/s.
Turning to `C#CCOc1ccc(/C=C/C(=O)N2CCc3ccccc3C2)cc1OC` [Compound 5e, (E)-1-(3,4-dihydroisoquinolin-2(1H)-yl)-3-(3-methoxy-4-(prop-2-yn-1-yloxy)phenyl)prop-2-en-1-one], the “Cytotoxicity on BV-2 cells” value in the data set with BV-2 cells is listed as “non-toxic”. Further, the “Effect on release of NO in BV-2 cells without LPS” value in data set [1] was “did not produce an effect on the release of NO”. In addition, the “Level of TNF-α production” value in data set [2] (compound at 5 μM) stood at 805 pg/mL; in data set [2] (compound at 10 μM), 550 pg/mL. In addition, the inhibition at 5 µM in data set [2] is 52.6%. Moreover, the “Cell viability … (in words)” value with PC12 cells is “gradually increased in a dose-dependent manner”. Also, the Pe in data set [3] is 12.5 ×10⁻⁶ cm/s.
Take `COc1ccc(/C=C/C(=O)N2CCc3ccccc3C2)cc1OC` [Compound 5f, (E)-1-(3,4-dihydroisoquinolin-2(1H)-yl)-3-(3,4-dimethoxyphenyl)prop-2-en-1-one]: the “Cytotoxicity on BV-2 cells” value in the data set with BV-2 cells was “non-toxic”. Moreover, the “Effect on release of NO in BV-2 cells without LPS” value in data set [1] is “did not produce an effect on the release of NO”. Moreover, the “Level of TNF-α production” value in data set [2] (compound at 5 μM) was determined as 750 pg/mL; in data set [2] (compound at 10 μM) it was 455 pg/mL. The inhibition at 5 µM in data set [2] amounted to 55.9%. The “Cell viability … (in words)” value in the data set with PC12 cells is reported as “gradually increased in a dose-dependent manner”. Further, the “Radio-uptake decrease of [11C]5f in the brain after pre-treatment (blocking)” value in data set [4] is about 35%. This molecule registered a Pe in data set [3] of 20.4 ×10⁻⁶ cm/s.
In the case of `COc1cc(/C=C/C(=O)N2CCC(Cc3ccccc3)CC2)ccc1OC1CCCCC1` [Compound 5d, (E)-1-(4-benzylpiperidin-1-yl)-3-(4-(cyclohexyloxy)-3-methoxyphenyl)prop-2-en-1-one], the “Cytotoxicity on BV-2 cells” value in the data set with BV-2 cells is listed as “non-toxic”. The “Effect on release of NO in BV-2 cells without LPS” value in data set [1] is recorded as “did not produce an effect on the release of NO”. For the same molecule, the “Level of TNF-α production” value in data set [2] (compound at 5 μM) is given as 780 pg/mL; in data set [2] (compound at 10 μM), 460 pg/mL. Further, in data set [2], the inhibition at 5 µM amounted to 54.1%. Also, in the data set with PC12 cells, the “Cell viability … (in words)” value is on record as “gradually increased in a dose-dependent manner”. The molecule also registered a Pe in data set [3] of 18.2 ×10⁻⁶ cm/s.
